Data taken from paper PMC8607110, “Pyrazole Derivatives Induce Apoptosis via ROS Generation in the Triple Negative Breast Cancer Cells, MDA-MB-468” (Asian Pacific Journal of Cancer Prevention : APJCP, 2021).
Several values for one entry are separate records, joined by “and”; a condition that tells them apart may be missing. Identical values can stand only once. Like-named read-outs stand apart in the source and are kept apart here.

Key:
[1] = system: 5637 cells; design: method as in Tessmann et al., 2017; settings: human bladder cancer cell line; ref Tessmann et al., 2017; cited from earlier work
[2] = system: MDA-MB-468 cells; assay: MTT cell viability assay, MDA-MB-468; type: cell-based, human; settings: mean ± SD of triplicate
Procedure: (§1) The MDA-MB-468 cells were maintained in DMEM/Ham’s F12 supplemented with L-glutamine, with 10% fetal bovine serum and 1% penicillin/streptomycin. The AGO1522 cell line was cultured in DMEM/Low Glucose, with 10% fetal bovine serum and 1% penicillin/ streptomycin. Cells were incubated at 37°C, 5% CO2 and every 2-3 days at the confluency of 80%, the cells were harvested from the culture flask by Trypsin-EDTA.
(§2) Cell viability was measured with the MTT assay. The reduction of the tetrazolium salt, to a blue formazan crystal is facilitated by mitochondrial dehydrogenase and NADPH-dependent cellular oxidoreductase enzymes (Abel and Baird, 2018). In the assay, an aliquot of 7.5 × 10^3 cells was seeded on the 96-well plates and allowed to attach overnight. Then, 11 Pyrazole derivatives (as shown in Table 1 and Figure S1) were added to the desired well with the final concentration of 3, 6.25, 12.5, 25, 50, 100 μM. After pre-treating cells for 24 and 48h, MTT (5 mg/ml in PBS) was added to each well and the cells were incubated for another 4 h at 37°C. In order to dissolve blue-colored formazan crystals, the entire medium was aspirated after the incubation period, and DMSO was added to the wells. An ELISA plate reader (BioTek Instruments, Inc., USA) was used to quantify the formazan concentration (with the wavelengths of 570 nm). All of the experiments were carried out on three replicates to ensure the measurement repeatability and the IC50 values were also calculated using GraphPad Prism software.

[3] = system: AGO1522 cells; assay: MTT cell viability assay, AGO1522 normal fibroblasts; type: cell-based; settings: Homo sapiens, Fibroblast, mean ± SD of triplicate
Procedure: as §1, §2

[4] = system: MDA-MB-468 cells; assay: Intracellular ROS detection with DCFH-DA; type: cell-based, human; settings: 14.97 μM, 24 h, MDA-MB-468, DCFH-DA fluorimetry, vs untreated
Procedure: The level of intracellular ROS corresponded to the MDA-MB-468 cells in response to the 3f compound was monitored by using DCFH-DA. Briefly, 7.5 × 10^3 MDA-MB-468 cells were seeded per well of 96-wells plate and allowed to attach to the bottom of the wells for an overnight followed by treatment with 3f compound at a concentration of 14.7 μM. After incubation of cells for 24 h, PBS was used for rinsing and then cells incubated in the presence of DCFH-DA for 30 min at 37°C. Next, to remove the extracellular DCFH-DA, cells were washed three times with prechilled PBS. Finally, the fluorescent of collected cells was analyzed by using a fluorescent microplate reader (BioTek Synergy HT, Winooski, VT, USA).

[5] = system: MDA-MB-468 cells; assay: Cell cycle analysis by PI staining and flow cytometry; type: cell-based, human; settings: 14.97 μM, 24 h
Procedure: Cell cycle analysis was conducted through taking advantage of PI staining and flow cytometry analysis. To evaluate cellular DNA levels, the cells stained with PI were subjected to ﬂow cytometric analyses. In this assay, six-well plates were loaded with 2 × 10^5 MDA-MB-468 cells / well. After incubation of the samples at 37°C for 24 h, cells were treated with 3f at concentrations of 14.7 μM followed 24 h incubation. Then, the effect of the drug became evident and cells collected by rinsing with PBS (two times), immobilizing with 70% ice-cold ethanol (for 3 h), and washing with PBS (two times). To resuspend the cells a mixture of 0.25 ml PBS containing 5 μl of 10 mg/ml RNase A and Triton X-100 (0.1%) including 10μl of PI (50 μg/ml) was used and incubation was performed at 37°C for 30 min in a dark place. The assessment of stain cells was carried out employing a FACS Calibur flow cytometer (BD Biosciences, San Jose, CA). The apoptotic rate of the cell population was measured by calculating the percentage of cells with sub-G1 DNA content.

[6] = system: caspase-3 in MDA-MB-468 cells; assay: Caspase-3 activity, DEVD-AFC fluorometric assay; type: cell-based, human; settings: 14.97 μM, 24 h, MDA-MB-468, vs untreated
Procedure: From a mechanistic point of view, caspase 3 as a member of the cysteine-aspartic protease family is essential for a variety of biological activities, including apoptosis in mammalian cells (Skiba et al., 2019). To confirm the drug triggers apoptosis, the level of 7-amino-4-trifluoromethyl-coumarin (AFC) from DEVD-AFC, a marker of caspase 3 activation, was measured using Caspase-3/CPP32 Fluorometric Assay Kit (BioVision Research Products, Mountain View, CA, USA). Briefly, MDA-MB-468 cells (a density of 7.5 × 10^3 per well in 96-wells plate) were treated with 14.97 μM 3f for 24 h. The following day, cells were collected, washed two times in PBS and lysed in lysis buffer (for 10 min on ice). The concentration of protein was assessed and 50 µL of supernatant containing 50-200 µg protein was added to the 50 µL of 2x reaction buffer and 5 μl of DEVD-AFC substrate (1 mM), in a 96-wells plate. The mixture was then left at 37°C for 2 hours followed by monitoring the fluorescence intensity using a fluorescent microplate reader (BioTek Synergy HT, Winooski, VT, USA).

[7] = system: MDA-MB-468 cells; assay: Annexin V-FITC/PI apoptosis detection by flow cytometry; type: cell-based, human; settings: 14.97 µM, 24 h, MDA-MB-468, compared with untreated cells
Procedure: Annexin V-FITC/PI Apoptosis Detection Kit was employed to detect apoptosis. To assess the number of apoptotic cells, an aliquot of MDA-MB-468 cells was adjusted to obtain 2 × 10^5 cells per well in six-well plates followed by incubation for an overnight. After incubation cells on the surface for an appropriate time, compound 3f was added to the wells to obtain the final concentration of 14.7μM in wells for 24 h. Cells were then harvested from the culture wells by aspirating media and washing with ice-cold PBS. Once the cells have detached, resuspended cells were pipetted up and down thoroughly followed by transferring to a sterilized 5 ml centrifuge tube. After 15min, 400 µl of the binding buffer was added to the cell suspension. Then annexin V-FITC and PI staining solution were added to the tubes. The cell suspension was then placed in a dark place (10 min at room temperature). A flow cytometer (BD Biosciences, San Jose, CA) was used to analyze the cells. The analysis of data was made using FlowJo software.

[8] = Homo sapiens, MDA-MB-468, 24 h, 24 h treatment, read-out: IC50, MDA-MB-468, 24 hours
[9] = Homo sapiens, MDA-MB-468, 48 h, 48 h treatment, read-out: IC50, MDA-MB-468, 48 hours
[10] = 24 h treatment, read-out: IC50, AGO1522, 24 hours
[11] = 48 h treatment, read-out: IC50, AGO1522, 48 hours

IC50 [2, 8]	IC50 [2, 9]	Compound	IC50 [3, 10]	IC50 [3, 11]	also measured
–	–	NC(=S)N1N=C(c2ccccc2)CC1c1ccccc1 (stereo not shown) [2a, 1-thiocarbamoyl-3,5-diphenyl-4,5-dihydro-1H-Pyrazole]	–	–	cell cycle progression of 5637 cells [1]: inhibited cell cycle progression
–	–	NC(=S)N1N=C(c2ccccc2)CC1c1ccc(Cl)cc1 (stereo not shown) [2c, 1-thiocarbamoyl-5-(4-chlorophenyl)-3-phenyl-4,5-dihydro-1H-Pyrazole]	–	–	cell cycle progression of 5637 cells [1]: inhibited cell cycle progression
25 µM	6.41 ± 1.1 µM	COc1cc(C2CC(c3ccccc3)=NN2c2ccccc2)cc(OC)c1OC (stereo not shown) [3a, 1,3-diphenyl-5-(3,4,5-trimethoxyphenyl)-4,5-dihydro-1H-Pyrazole]	28.8 ± 0.95 µM	19.9 ± 0.83 µM	–
19.2 ± 0.97 µM	9.29 ± 0.67 µM	COc1cc(C2CC(c3ccccc3)=NN2c2ccc(C)cc2)cc(OC)c1OC (stereo not shown) [3b, 3-phenyl-1-(p-tolyl)-5-(3,4,5-trimethoxyphenyl)-4,5-dihydro-1H-Pyrazole]	29.8 ± 1.02 µM	19.8 ± 0.96 µM	–
58.6 ± 0.82 µM	19.9 ± 1.12 µM	COc1cc(C2CC(c3ccccc3)=NN2c2ccc(Cl)cc2)cc(OC)c1OC (stereo not shown) [3c, 1-(4-chlorophenyl)-3-phenyl-5-(3,4,5-trimethoxyphenyl)-4,5-dihydro-1H-Pyrazole]	24.1 ± 0.65 µM	17.7 ± 0.93 µM	–
32.6 ± 1.22 µM	15.2 ± 0.9 µM	COc1cc(C2CC(c3ccccc3)=NN2c2ccc(F)cc2)cc(OC)c1OC (stereo not shown) [3d, 1-(4-fluorophenyl)-3-phenyl-5-(3,4,5-trimethoxyphenyl)-4,5-dihydro-1H-Pyrazole]	42.1 ± 1.27 µM	35.6 ± 1.32 µM	–
21.3 ± 0.85 µM	10.8 ± 0.93 µM	COc1ccc(C2=NN(c3ccccc3)C(c3cc(OC)c(OC)c(OC)c3)C2)cc1 (stereo not shown) [3e, 3-(4-methoxyphenyl)-1-phenyl-5-(3,4,5-trimethoxyphenyl)-4,5-dihydro-1H-Pyrazole]	42.8 ± 0.98 µM	19.9 ± 0.99 µM	–
15 ± 1.09 µM	6.4 µM	COc1ccc(C2=NN(c3ccc(C)cc3)C(c3cc(OC)c(OC)c(OC)c3)C2)cc1 (stereo not shown) [3f, 3-(4-methoxyphenyl)-1-(p-tolyl)-5-(3,4,5-trimethoxyphenyl)-4,5-dihydro-1H-Pyrazole]	28.7 ± 1.2 µM	20.3 ± 0.83 µM	IC50 ([2]; 48 h treatment, read-out: IC50, MDA-MB-468, 48 hours): 6.45 ± 0.84 µM; intracellular ROS level [4]: ascending trend; G1 cell fraction [5]: 50.52%; G2 cell fraction [5]: 6.28%; S phase cell fraction [5]: 35% and 35.01%; Sub-G1 cell fraction [5]: 8.12%; Super-G2 cell fraction [5]: 0.07%; cell cycle effect [5]: induced cell cycle arrest in S phase; Sub-G1 cell fraction ([5]; as worded in text): 8.12%; caspase-3 activity [6]: significantly increased; apoptosis value [7]: 38%
25.8 ± 0.91 µM	8.5 ± 0.89 µM	COc1ccc(C2=NN(c3ccc(Cl)cc3)C(c3cc(OC)c(OC)c(OC)c3)C2)cc1 (stereo not shown) [3g, 1-(4-chlorophenyl)-3-(4-methoxyphenyl)-5-(3,4,5-trimethoxyphenyl)-4,5-dihydro-1HPyrazole]	43.3 ± 0.96 µM	34 ± 1.92 µM	–
19.4 ± 1.14 µM	11 ± 0.88 µM	COc1cc(-c2cc(-c3ccccc3)nn2-c2ccccc2)cc(OC)c1OC [4a, 1,3-diphenyl-5-(3,4,5-trimethoxyphenyl)-1H-Pyrazole]	31.2 ± 1.24 µM	14.5 ± 0.97 µM	–
58.2 ± 1.35 µM	12 ± 0.94 µM	COc1ccc(-c2cc(-c3cc(OC)c(OC)c(OC)c3)n(-c3ccc(C)cc3)n2)cc1 [4b, 3-(4-methoxyphenyl)-1-(p-tolyl)-5-(3,4,5-trimethoxyphenyl)-1H-Pyrazole]	34.6 ± 0.89 µM	27 ± 0.79 µM	–
28.8 ± 0.98 µM	12.4 ± 0.79 µM	COc1ccc(-c2cc(-c3cc(OC)c(OC)c(OC)c3)n(-c3ccc(Cl)cc3)n2)cc1 [4c, 1-(4-chlorophenyl)-3-(4-methoxyphenyl)-5-(3,4,5-trimethoxyphenyl)-1H-Pyrazole]	25.2 ± 0.88 µM	20.9 ± 0.92 µM	–
58.6 ± 1.32 µM	24.5 ± 1.17 µM	COc1ccc(-c2cc(-c3cc(OC)c(OC)c(OC)c3)n(-c3ccc(F)cc3)n2)cc1 [4d, 1-(4-fluorophenyl)-3-(4-methoxyphenyl)-5-(3,4,5-trimethoxyphenyl)-1H-Pyrazole]	34.4 ± 1.31 µM	27.3 ± 0.94 µM	–
49.9 ± 0.97 µM	25.2 ± 1.27 µM	CC(=O)O[C@H]1C(=O)[C@@]2(C)[C@H]([C@H](OC(=O)c3ccccc3)[C@]3(O)C[C@H](OC(=O)[C@H](O)[C@@H](NC(=O)c4ccccc4)c4ccccc4)C(C)=C1C3(C)C)[C@]1(OC(C)=O)CO[C@@H]1C[C@@H]2O [Paclitaxel, reference compound]	42.9 ± 1.42 µM	22.6 ± 0.91 µM	–
